Test results as given in US9359423B2, “Protein involved in detection of cancer metastasis and a treatment thereof” (National University of Singapore, priority 2011, dated 2016).

Tests used:
[1] = biological target: T1, endogenous TRPV4 (Mus musculus, UniProt Q9EPK8); conditions: read-out: IC50, endogenous TRPV4-mediated response to 4α-PDH; 4α-PDH stimulation; cited from earlier work
T1 construct: endogenous in cells

[2] = cited from earlier work
[3] = biological target: T2, TRPV4 (Homo sapiens, UniProt Q9HBA0); conditions: cited from earlier work
T2 sequence (Q9HBA0 whole entry, species assumed): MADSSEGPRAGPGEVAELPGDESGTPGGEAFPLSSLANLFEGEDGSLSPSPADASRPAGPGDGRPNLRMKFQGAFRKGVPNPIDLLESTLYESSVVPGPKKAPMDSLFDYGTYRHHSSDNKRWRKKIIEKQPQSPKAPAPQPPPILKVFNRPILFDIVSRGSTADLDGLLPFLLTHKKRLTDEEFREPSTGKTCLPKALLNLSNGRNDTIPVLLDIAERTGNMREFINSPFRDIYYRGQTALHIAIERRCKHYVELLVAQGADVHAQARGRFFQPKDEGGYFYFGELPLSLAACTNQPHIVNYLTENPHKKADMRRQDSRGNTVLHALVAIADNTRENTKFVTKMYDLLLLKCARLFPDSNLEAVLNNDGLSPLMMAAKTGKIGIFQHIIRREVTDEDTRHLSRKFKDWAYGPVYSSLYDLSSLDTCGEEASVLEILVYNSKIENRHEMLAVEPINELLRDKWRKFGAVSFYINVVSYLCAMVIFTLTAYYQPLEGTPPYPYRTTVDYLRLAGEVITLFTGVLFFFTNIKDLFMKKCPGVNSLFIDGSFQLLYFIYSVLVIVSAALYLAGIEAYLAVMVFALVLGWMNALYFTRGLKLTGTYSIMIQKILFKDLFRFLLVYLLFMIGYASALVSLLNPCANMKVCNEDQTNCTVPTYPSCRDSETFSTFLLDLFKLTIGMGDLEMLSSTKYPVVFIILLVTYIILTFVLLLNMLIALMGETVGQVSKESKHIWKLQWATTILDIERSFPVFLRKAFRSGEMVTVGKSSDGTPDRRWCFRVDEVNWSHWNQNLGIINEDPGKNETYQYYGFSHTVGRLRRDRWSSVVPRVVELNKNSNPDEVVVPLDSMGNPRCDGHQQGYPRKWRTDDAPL

[4] = biological target: T2, TRPV4; conditions: 4α-phorbol 12,13-didecanoate stimulation; cited from earlier work
[5] = test system: E-cadherin, b-catenin and paxillin; assay: Expression of cell-adhesion proteins after activation of TRPV4 by PDD; type: cell-based; conditions: PDD treatment, FIG. 4B
From the text: (§1) FIG. 4A—Silencing of TRPV4 expression was associated with a failure to produce a rise of intracellular Ca2+ upon stimulation with PDD. […] 4C—Activation of TRPV4 by PDD treatment stimulated AKT, FAK and MAPK pathway.
FIG. 5—AKT mediates TRPV4-induced downregulation of E-cadherin and b-catenin. Down regulation of these cytoskeletal proteins correlate with an increase in cancer cell plasticity required for intravasation and extravasation processes during metastasis. Cells were either treated or not treated with PDD (activator of TRPV4) in the presence or absence of AKT inhibitor). Top 1 and 2 panels, inhibition of AKT is confirmed by probing the phosphorylation status of S6, a downstream target of AKT. Bottom 3-5 panels, PDD-induced downregulation of E-cadherin and b-catenin.

[6] = test system: AKT, FAK and MAPK pathway; assay: Pathway activation after activation of TRPV4 by PDD; type: cell-based; conditions: PDD treatment, FIG. 4C
From the text: as §1

T1 sequence (Q9EPK8 whole entry): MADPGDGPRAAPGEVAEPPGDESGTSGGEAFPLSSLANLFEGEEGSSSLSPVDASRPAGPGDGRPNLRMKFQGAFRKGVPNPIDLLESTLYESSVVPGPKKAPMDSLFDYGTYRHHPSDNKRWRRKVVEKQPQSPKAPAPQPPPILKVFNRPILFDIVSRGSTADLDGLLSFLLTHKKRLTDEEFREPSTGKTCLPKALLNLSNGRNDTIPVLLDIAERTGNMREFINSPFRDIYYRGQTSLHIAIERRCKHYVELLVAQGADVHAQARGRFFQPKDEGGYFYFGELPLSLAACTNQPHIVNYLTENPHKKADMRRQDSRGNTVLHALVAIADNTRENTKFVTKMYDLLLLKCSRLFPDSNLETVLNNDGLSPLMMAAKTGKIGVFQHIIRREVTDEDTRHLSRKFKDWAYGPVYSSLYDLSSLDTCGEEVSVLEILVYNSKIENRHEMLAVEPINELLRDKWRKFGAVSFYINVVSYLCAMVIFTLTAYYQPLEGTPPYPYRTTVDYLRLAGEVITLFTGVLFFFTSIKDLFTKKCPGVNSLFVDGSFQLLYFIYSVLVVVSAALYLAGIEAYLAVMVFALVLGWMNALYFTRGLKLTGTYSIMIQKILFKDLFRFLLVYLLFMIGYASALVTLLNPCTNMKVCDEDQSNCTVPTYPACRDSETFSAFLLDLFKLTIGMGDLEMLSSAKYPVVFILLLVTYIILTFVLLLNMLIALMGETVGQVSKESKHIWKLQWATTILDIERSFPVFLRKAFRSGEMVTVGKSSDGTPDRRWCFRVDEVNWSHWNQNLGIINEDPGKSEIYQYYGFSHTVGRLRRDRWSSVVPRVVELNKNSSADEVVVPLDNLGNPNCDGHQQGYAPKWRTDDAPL

In the case of `Cc1c(C(=O)Nc2cccc(C(F)(F)F)c2)cc(-c2ccccc2)n1CCCN1CCOCC1` [formula 1, 2-Methyl-1-[3-(4-morpholinyl)propyl]-5-phenyl-N-[3-(trifluoromethyl)phenyl]-1H-pyrrole-3-carboxamide], the IC50 [1] is listed as 22 nM, the “Solubility in DMSO” value ([2]; DMSO) is listed as 100 mM and the Solubility in ethanol ([2]; ethanol) is listed as 25 mM.

For `N.N.N.N.N.N.N.N.N.N.N.N.N.N.[Cl-].[Cl-].[Cl-].[Cl-].[Cl-].[Cl-].[O-2].[O-2].[Ru+3].[Ru+3].[Ru+4]` [Ruthenium red], the “Inhibition of TRPV4” value [3] is given as “known inhibitor of TRPV4”.

For `Cc1c(C(=O)Nc2cccc(C(F)(F)F)c2)cc(-c2ccccc2)n1CCCN1CCOCC1` [formula 3], the “Effect on 4α-PDD-induced Ca2+ responses” value [4] is given as “reduces”.

For `CCCCCCCCCC(=O)O[C@@H]1[C@@H](C)[C@@]2(O)[C@@H](C=C(CO)C[C@@]3(O)C(=O)C(C)=C[C@@H]23)[C@@H]2C(C)(C)[C@]12OC(=O)CCCCCCCCC` [PDD, 4α-phorbol 12,13-didecanoate], the “Expression of cell-adhesion proteins like E-cadherin, b-catenin and paxillin” value [5] was “reduced” and the “AKT, FAK and MAPK pathway activation” value [6] was “stimulated”.
